Experimental data published in patent US7160888B2, “[1,8]naphthyridin-2-ones and related compounds for the treatment of schizophrenia” (Warner Lambert Company LLC, priority 2003, dated 2007).

Legend:
D2 receptor = D2 receptor (Homo sapiens, UniProt P14416); test: [3H]Thymidine uptake assay for D2 intrinsic activity; type: cell-based; conditions: Table 1; test compound 1 μM; 1 μM Quinpirole = 100% intrinsic activity
Chain of D2 receptor (P14416 whole entry): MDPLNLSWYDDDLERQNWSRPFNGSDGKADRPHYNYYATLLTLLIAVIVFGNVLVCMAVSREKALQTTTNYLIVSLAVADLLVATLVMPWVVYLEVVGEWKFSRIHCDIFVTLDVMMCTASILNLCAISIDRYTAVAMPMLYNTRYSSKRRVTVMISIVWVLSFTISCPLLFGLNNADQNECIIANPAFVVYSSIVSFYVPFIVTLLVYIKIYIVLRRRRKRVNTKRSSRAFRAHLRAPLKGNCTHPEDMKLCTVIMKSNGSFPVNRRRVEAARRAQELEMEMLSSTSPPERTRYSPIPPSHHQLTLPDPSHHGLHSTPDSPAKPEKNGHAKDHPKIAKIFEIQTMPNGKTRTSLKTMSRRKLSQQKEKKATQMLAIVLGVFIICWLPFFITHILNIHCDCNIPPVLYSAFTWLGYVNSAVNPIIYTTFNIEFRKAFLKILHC

| Structure (SMILES) | Emax at 1 µM (D2 receptor) [%] | melting point [°C] |
| --- | --- | --- |
| Cc1cc(=O)[nH]c2nc(CCCCCN3CCN(c4cccc(Cl)c4Cl)CC3)ccc12 [Example D3, 7-{5-[4-(2,3-Dichloro-phenyl)-piperazin-1-yl]-pentyl}-4-methyl-1H-[1,8]naphthyridin-2-one] | 15 | 195 to 196 |
| Cc1cc2ccc(CCCCCN3CCN(c4cccc(Cl)c4Cl)CC3)nc2[nH]c1=O [Example D5, 7-{5-[4-(2,3-Dichloro-phenyl)-piperazin-1-yl]-pentyl}-3-methyl-1H-[1,8]naphthyridin-2-one] | 15 | 157 to 158 |
| Cc1c(C)c2ccc(OCCCCN3CCN(c4cccc(Cl)c4Cl)CC3)nc2[nH]c1=O [Example D7, 7-{4-[4-(2,3-Dichloro-phenyl)-piperazin-1-yl]-butoxy}-3,4-dimethyl-1H-[1,8]naphthyridin-2-one] | 15 | 161 to 163 |
| Cc1c(C)c2ccc(CCCCCN3CCN(c4cccc(Cl)c4Cl)CC3)nc2[nH]c1=O [Example D8, 7-{5-[4-(2,3-Dichloro-phenyl)-piperazin-1-yl]-pentyl}-3,4-dimethyl-1H-[1,8]naphthyridin-2-one] | 8 | 202 to 203 |
| Cc1cc2c(nc1OCCCCN1CCN(c3cccc(Cl)c3Cl)CC1)NC(=O)CC2 [Example E1, 7-{4-[4-(2,3-Dichloro-phenyl)-piperazin-1-yl]-butoxy}-6-methyl-3,4-dihydro-1H-[1,8]naphthyridin-2-one] | 32 | 138 to 139 |
| Cc1cc2c(nc1OCCCCN1CCN(c3cccc4ccccc34)CC1)NC(=O)CC2 [Example E2, 6-Methyl-7-[4-(4-naphthalen-1-yl-piperazin-1-yl)-butoxy]-3,4-dihydro-1H-[1,8]naphthyridin-2-one] | 22 | 76 to 78 |
| O=C1NCc2ccc(OCCCCN3CCN(c4cccc(Cl)c4Cl)CC3)nc2N1 [Example F1, 7-{4-[4-(2,3-Dichloro-phenyl)-piperazin-1-yl]-butoxy}-3,4-dihydro-1H-pyrido[2,3-d]pyrimidin-2-one] | 8 | 166 to 167 |
| O=C1NCc2ccc(OCCCCN3CCN(c4cccc5ccccc45)CC3)nc2N1 [Example F2, 7-[4-(4-Naphthalen-1-yl-piperazin-1-yl)-butoxy]-3,4-dihydro-1H-pyrido[2,3-d]pyrimidin-2-one] | 30 | 136 to 138 |
